In US6855730B2, “3-methylidenyl-2-indolinone modulators of protein kinase” (Sugen, Inc., priority 1998, dated 2005):

Assays:
human flk-1 = target: T1, human flk-1 (Homo sapiens, UniProt P35968); test: Biochemical FLK-1 assay (flk-1 autophosphorylation ELISA); details: read-out: bio FLK1 IC50 (μM) % if inhibition at 100
T1 construct: host or cells: Flk-1/NIH cells (NIH fibroblasts)
Summary of the method: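 Flk-1 from lysates of NIH fibroblasts over-expressing human flk-1 (50 μg/well) was captured on anti-flk-1 antibody-coated plates, then autophosphorylated with test compounds and ATP (0.3 mM working solution) for 60 min at room temperature before EDTA stop. Phosphotyrosine was detected with biotinylated 4G10, avidin-biotin peroxidase and TMB at 450 nm.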

flkGST = target: T2, flkGST (Homo sapiens, UniProt P35968); test: bio flkGST assay; format: biochemical
T2 construct: GST
T2 sequence (P35968 786-1356 limits assumed): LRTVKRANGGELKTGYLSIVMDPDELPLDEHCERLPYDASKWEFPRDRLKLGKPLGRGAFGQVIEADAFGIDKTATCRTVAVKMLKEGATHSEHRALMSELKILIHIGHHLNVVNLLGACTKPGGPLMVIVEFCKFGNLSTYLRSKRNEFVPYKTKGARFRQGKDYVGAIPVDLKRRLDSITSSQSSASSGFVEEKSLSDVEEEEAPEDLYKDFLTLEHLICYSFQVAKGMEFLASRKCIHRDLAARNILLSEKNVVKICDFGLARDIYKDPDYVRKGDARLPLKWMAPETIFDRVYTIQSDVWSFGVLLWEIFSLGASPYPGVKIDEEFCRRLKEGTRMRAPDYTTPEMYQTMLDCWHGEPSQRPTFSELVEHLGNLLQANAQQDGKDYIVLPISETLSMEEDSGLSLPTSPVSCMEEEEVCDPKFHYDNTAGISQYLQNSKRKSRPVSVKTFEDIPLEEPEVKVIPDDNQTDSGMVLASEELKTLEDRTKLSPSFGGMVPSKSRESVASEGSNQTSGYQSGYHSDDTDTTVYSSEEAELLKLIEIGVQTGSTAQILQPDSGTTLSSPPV

T1 sequence (P35968 20-1356): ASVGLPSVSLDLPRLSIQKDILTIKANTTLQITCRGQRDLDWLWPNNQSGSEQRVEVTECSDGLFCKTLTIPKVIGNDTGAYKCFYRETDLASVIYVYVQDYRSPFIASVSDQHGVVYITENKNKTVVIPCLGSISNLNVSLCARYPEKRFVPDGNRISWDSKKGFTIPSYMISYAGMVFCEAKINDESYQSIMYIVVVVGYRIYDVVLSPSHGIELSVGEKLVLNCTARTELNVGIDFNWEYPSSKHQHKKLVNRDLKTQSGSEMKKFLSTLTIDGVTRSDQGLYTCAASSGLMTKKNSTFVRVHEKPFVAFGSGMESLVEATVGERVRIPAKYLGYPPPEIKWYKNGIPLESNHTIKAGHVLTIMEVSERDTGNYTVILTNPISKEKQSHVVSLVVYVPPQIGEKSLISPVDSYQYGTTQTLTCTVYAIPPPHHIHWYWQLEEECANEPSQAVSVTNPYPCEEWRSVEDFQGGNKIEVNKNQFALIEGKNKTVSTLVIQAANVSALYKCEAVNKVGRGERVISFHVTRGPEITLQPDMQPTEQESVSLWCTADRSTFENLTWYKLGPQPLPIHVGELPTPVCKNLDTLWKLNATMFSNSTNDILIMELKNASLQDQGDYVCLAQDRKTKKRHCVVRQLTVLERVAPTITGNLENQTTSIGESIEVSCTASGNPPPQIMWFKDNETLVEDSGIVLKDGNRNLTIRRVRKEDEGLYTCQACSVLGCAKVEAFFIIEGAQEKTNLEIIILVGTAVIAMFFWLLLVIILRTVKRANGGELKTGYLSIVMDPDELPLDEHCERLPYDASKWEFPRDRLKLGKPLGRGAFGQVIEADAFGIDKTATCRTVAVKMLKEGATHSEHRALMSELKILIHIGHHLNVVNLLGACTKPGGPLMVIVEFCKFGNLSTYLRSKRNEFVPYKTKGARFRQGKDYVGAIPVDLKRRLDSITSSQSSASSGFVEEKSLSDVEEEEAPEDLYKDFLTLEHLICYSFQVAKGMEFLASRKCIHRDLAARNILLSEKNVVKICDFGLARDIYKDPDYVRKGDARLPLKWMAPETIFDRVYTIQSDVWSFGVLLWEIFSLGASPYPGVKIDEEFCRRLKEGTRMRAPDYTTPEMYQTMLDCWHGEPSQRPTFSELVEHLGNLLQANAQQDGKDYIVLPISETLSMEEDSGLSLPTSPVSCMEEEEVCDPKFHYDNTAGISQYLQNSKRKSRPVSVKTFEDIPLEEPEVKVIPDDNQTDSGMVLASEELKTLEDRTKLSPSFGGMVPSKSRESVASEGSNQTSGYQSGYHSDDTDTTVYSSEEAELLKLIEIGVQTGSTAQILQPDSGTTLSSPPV

Compound | IC50 (human flk-1) [µM] | IC50 (flkGST) [µM]
CN(C)CCCc1c(/C=C2\C(=O)Nc3ccccc32)[nH]c2c1CCCC2 [Example 198, 3-[3-(3-Dimethylaminopropyl)-4,5,6,7-tetrahydro-1H-indol-2-ylmethylene]-1,3-dihydroindol-2-one] | 7.44 | 5.84
NC(=O)CCc1c(/C=C2\C(=O)Nc3ccccc32)[nH]c2c1CCCC2 [Example 199, 3-[2-(2-Oxo-1,2-dihydroindol-3-ylidenemethyl)-4,5,6,7-tetrahydro-1H-indol-3-yl]-propionamide] | 0.13 | 0.17
O=C1Nc2ccccc2/C1=C/c1[nH]c2c(c1CCC(=O)N1CCOCC1)CCCC2 [Example 200, 3-[3-(3-Morpholin-4-yl-3-oxopropyl)-4,5,6,7-tetrahydro-1H-indol-2-ylmethylene]-1,3-dihydroindol-2-one] | 0.97 | 1.29
CNC(=O)CCc1c(/C=C2\C(=O)Nc3ccccc32)[nH]c2c1CCCC2 [Example 201, N-Methyl-3-[2-(2-oxo-1,2-dihydroindol-3-ylidenemethyl)-4,5,6,7-tetrahydro-1H-indol-3-yl]-propionamide] | 0.16 | 0.57
O=C(CCc1c(/C=C2\C(=O)Nc3ccccc32)[nH]c2c1CCCC2)NCCN1CCOCC1 [Example 202, N-(2-Morpholin-4-ylethyl)-3-[2-(2-oxo-1,2-dihydroindol-3-ylidenemethyl)-4,5,6,7-tetrahydro-1H-indol-3-yl]-propionamide] | 0.63 | 2.54
COc1cccc(-c2ccc3c(c2)NC(=O)/C3=C\c2[nH]c3c(c2CCC(=O)O)CCCC3)c1 [Example 204, 3-{2-[6-(3-Methoxyphenyl)-2-oxo-1,2-dihydro-indol-3-ylidenemethyl]-4,5,6,7-tetrahydro-1H-indol-3-yl}-propionic acid] | 0.36 | 0.07
COc1ccc(-c2ccc3c(c2)NC(=O)/C3=C\c2[nH]c3c(c2CCC(=O)O)CCCC3)cc1 [Example 205, 3-{2-[6-(4-Methoxyphenyl)-2-oxo-1,2-dihydro-indol-3-ylidenemethyl]-4,5,6,7-tetrahydro-1H-indol-3-yl}-propionic acid] | 0.52 | 0.44
O=C(O)CCc1c(/C=C2\C(=O)Nc3cc(-c4ccccc4)ccc32)[nH]c2c1CCCC2 [Example 206, 3-[2-(2-oxo-6-phenyl-1,2-dihydroindol-3-ylidenemethyl)-4,5,6,7-tetrahydro-1H-indol-3-yl]-propionic acid] | 6.08 | 0.06
CC(C)NS(=O)(=O)c1ccc2c(c1)C(=Cc1[nH]c3c(c1CCC(=O)O)CCCC3)C(=O)N2 [Example 208, 3-[2-(5-Isopropylaminosulfonyl-2-oxo-1,2-dihydroindol-3-ylidenemethyl)-4,5,6,7-tetrahydro-1H-indol-3-yl]-propionic acid] | < 0.78 | 0.38
Cc1c[nH]c(/C=C2\C(=O)Nc3cccc(C)c32)c1CCC(=O)O [Example 218, 3-[2-(4-Methyl-2-oxo-1,2-dihydroindol-3-ylidenemethyl)-4-methyl-1H-pyrrol-3-yl]-propionic acid] | 0.2 | 0.48
Cc1c[nH]c(/C=C2\C(=O)Nc3ccc(Br)cc32)c1CCC(=O)O [Example 220, 3-[2-(5-Bromo-2-oxo-1,2-dihydroindol-3-ylidenemethyl)-4-methyl-1H-pyrrol-3-yl]-propionic acid] | 0.35 | 0.11
COc1ccc2c(c1)/C(=C/c1[nH]cc(C)c1CCC(=O)O)C(=O)N2 [Example 222, 3-[2-(5-Methoxy-2-oxo-1,2-dihydroindol-3-ylidenemethyl)-4-methyl-1H-pyrrol-3-yl]-propionic acid] | < 0.78 | 0.18
COc1cccc(-c2ccc3c(c2)NC(=O)/C3=C\c2[nH]cc(C)c2CCC(=O)O)c1 [Example 223, 3-{2-[6-(3-Methoxyphenyl)-2-oxo-1,2-dihydro-indol-3-ylidenemethyl]-4-methyl-1H-pyrrol-3-yl}-propionic acid] | 28.2 | 0.57
CCOc1cccc(-c2ccc3c(c2)NC(=O)/C3=C\c2[nH]cc(C)c2CCC(=O)O)c1 [Example 224, 3-{2-[6-(3-Ethoxyphenyl)-2-oxo-1,2-dihydro-indol-3-ylidenemethyl]-4-methyl-1H-pyrrol-3-yl}-propionic acid] | 1 | 0.67
